Assay results: patent publication US20260257993A1, “COMPOUND, RUBBER BLEND CONTAINING THE COMPOUND, VEHICLE TIRE COMPRISING THE RUBBER BLEND IN AT LEAST ONE COMPONENT, PROCESS FOR PRODUCING THE COMPOUND, AND USE OF THE COMPOUND AS AN AGEING PROTECTANT AND/OR ANTIOZONANT AND/OR DYE” (Continental Reifen Deutschland GmbH, priority 2021, published 2026)

Assay: Measurement of oxidation induction time (OIT) by DSC
Conditions: with liquid polyisoprene LIR-50, isothermal 180° C., O2 atmosphere 50 mL/min, DSC peak
Experimental: The compounds of formula II) and III) were investigated under laboratory conditions for their potential protective effect as aging stabilizers by measurement of the oxidation induction time.
To this end the compounds of formula II) and III) and 6-PPD in each case together with a polymer (liquid synthetic polyisoprene (IR), LIR-50, Kuraray, weight average molecular weight distribution Mw=54 000 g/mol, glass transition temperature Tg=−63° C.) were heated at constant temperature (180° C.) until onset of oxidation (start temperature 35° C., heating to 170° C. at a heating rate of 20 K/min (kelvin per minute), heating to 180° C. at a heating rate of 1 K/min; purge gas: nitrogen (N2), volume flow 50 mL/min). The specimen was isothermally maintained for 5 minutes at 180° C. under an N2 atmosphere and the atmosphere was then switched to an 02 atmosphere (volume flow 50 mL/min).
Oxidation was determined via a peak using DSC (differential scanning calorimetry).
The time in minutes to oxidation was measured.

SMILES	Oxidation induction time: time to oxidation
CC(C)CC(C)Nc1ccc(Nc2ccccc2)cc1 (stereo not drawn) [6-PPD, N-(1,3-dimethylbutyl)-N′-phenyl-p-phenylenediamine, reference compound]	116 ± 10 min
CC(C)CC(C)Nc1ccc2[nH]c(-c3ccccc3)cc2c1 (stereo not drawn) [formula II), 2-phenyl-5-(1,3-dimethylbutylamino)-1H-indole]	105 ± 10 min
CC(C)CC(C)Nc1ccc2[nH]c(C3CCCCC3)cc2c1 (stereo not drawn) [formula III), 2-cyclohexyl-5-(1,3-dimethylbutylamino)-1H-indole]	205 ± 10 min
